Earlier results on 14 molecules are cited in patent publication US12161661B2, “Topical composition for destroying, in vivo, an external hyperplastic tissue, such as, but not limited to, a viral skin lesion, such as, but not limited to, a viral wart” (priority 2022, dated 2024).

Where two headings read alike, the source gives them in different places.

In data set [1] the test system is warts.
Data set [2] deals with plantar warts. The settings on record: 10% solution.
The subject of data set [3] is plantar warts. The settings on record: 12 weeks; 19/20.
In data set [4] the test system is warts of the hands and legs. As to conditions: 5% cream once a day for 4 weeks, with occlusion.
For data set [5], the system named is warts. The settings on record: 1 of 30.
Data set [6] relates to warts. The settings on record: oral, within 3 months, children aged 2.5-12.5 years; 16/20.
The subject of data set [7] is warts. The source holds these as a separate data set.
In data set [8] the test system is warts on the palms and soles.
For data set [9], the system named is warts. The source holds these as a separate data set.
In data set [10] the test system is flat warts on the face. The settings on record: after 2 months, 0.5 mg/kg. per day.
Data set [11] concerns warts on the hands and feet. As to conditions: plus light source PDL.
Another data set relates to periungual warts. The settings on record: once in two weeks for 6 weeks, after fractional CO2 laser.
Data set [12] relates to warts. The source holds these as a separate data set.
In data set [13] the test system is flat warts on the face. The settings on record: 0.7% cantharidin, over 16 weeks on average.
Data set [14] concerns warts. The settings on record: 80% solution every week for 6 weeks.
The mark [15] stands for this setting: 15-26% salicylic acid locally every day for 3 to 4 months.

For the molecule `CC(C)Cn1cnc2c(N)nc3ccccc3c21` [Imiquimod], the “curing, patients” value in the data set with warts [1] (9.5 weeks, 50 patients of whom 19 had immunosuppression) is reported as 56%. The “patients with a 50% egression of warts” value with warts [1] (twice daily for up to 24 weeks) is given as 76%.

For the molecule `O=CCCCC=O` [Glutaraldehyde], the effectiveness in the data set on resistant warts (25 patients) is listed as 72%. Further, the tolerability result in the data set on resistant warts (human, in vivo) is recorded as “well tolerated”. For the same molecule, in the data set with plantar warts [2], the “efficiency compared with salicylic acid” value was “equivalent to the solution of salicylic acid”.

`O=c1[nH]cc(F)c(=O)[nH]1` [5-FU, Ftoruracil]: the “complete cure, patients” value in the data set on plantar warts [3] is recorded as 95%. In addition, the “warts cleared at the end of treatment” value in data set [4] is 60%.

For the molecule `CC1=C(/C=C/C(C)=C/C=C/C(C)=C/C(=O)O)C(C)(C)CCC1` [tretinoin], in the data set with warts [5], the “effect achieved, patients” value is recorded as 3%.

As for `CCOC(=O)/C=C(C)/C=C/C=C(C)/C=C/c1c(C)cc(OC)c(C)c1C` [etretinate], the effect observed in the data set on warts [6] is reported as 80%.

Consider `CC(=O)C(=O)O` [pyruvic acid], for which the “recovery, patients” value with warts [7] (in combination with 0.5% 5-FU) is listed as 80%; in the data set on warts [7] (pyruvic acid alone) it was 70%.

For the molecule `O=c1c(-c2ccccc2)c1-c1ccccc1` [DPC, Diphenylcyclopropenone], in [8] (48 patients treated with DPC), the “complete disappearance of warts” value is given as 88%. In addition, the average processing time in data set [8] (human, in vivo) is reported as 5 months. For the same molecule, the recurrence result in data set [8] (within 2 years) was “no recurrence was observed”.

For `Nc1ccn(C[C@@H](CO)OCP(=O)(O)O)c(=O)n1` [Cidofovir], in the data set on warts [9] (average of 3.2 injections per course), the resolution of warts was 98%. Further, the side effects result in the data set on warts [9] (in vivo) is “nephrotoxicity, neutropenia, and metabolic acidosis”.

Turning to `CC1=C(/C=C/C(C)=C/C=C/C(C)=C\C(=O)O)C(C)(C)CCC1` [isotretinoin], in the data set on flat warts on the face [10], the effect is recorded as 73%.

As to `COC(=O)CCC(=O)CN` [MAL-PDT, methyl5-aminolaevuninic acid], the “resolution of treated warts” value in data set [11] was 53%. Also, the cure rate in the data set with periungual warts is on record as 90%.

For `O=C(O)c1ccccc1O` [salicylic acid], in the data set with warts [12] (setting [15]), the average cure rate was 49% and the “cure rate, range” value was 0-69%. The “effect of the salicylic acid (qualitative studies)” value with warts [12] (in vivo) was “low”.

In the case of bleomycin, the cure rate with wart (0.1-1 mg injected into the wart, compared with cryotherapy) was 92-97%. In addition, the “pain after injection, duration” value in the data set on wart (main side effect) is on record as “up to 48 hours”.

In the case of `C[C@@]12C(=O)OC(=O)[C@]1(C)[C@H]1CC[C@@H]2O1` [cantharidin], the cure result in the data set with flat warts on the face [13] was “cure in all 15 patients”.

`Oc1ccccc1` [phenol]: the cure rate in the data set on warts [14] was 83%.
